Experimental data published in patent EP4793292A1, “POLYPEPTIDE DERIVATIVE, PHARMACEUTICAL COMPOSITION THEREOF AND USE THEREOF” (Biocells (Beijing) Biotech Co., Ltd., priority 2023, dated 2025).
Starred links: 1 amine or outer side, 2 acyl side, 3 side chain; linkers in the order of their positions; H or OH if unused. Positions of bridges follow the written chain, without caps; N, C: chain ends. Non-standard residues stand in square brackets, D forms with d. Residues, ends and D or L forms follow the SMILES beside them. Groups on a side chain read outwards from the residue. No end group written: not given here. *: point of attachment. C18 diacid = O=C(O)CCCCCCCCCCCCCCCCC(=O)*; γGlu = O=C(O)[C@H](CCC(=O)[*:2])N[*:1]; Palmitoyl = CCCCCCCCCCCCCCCC(=O)*; Lauroyl = CCCCCCCCCCCC(=O)*; AEEA = NCCOCCOCC(=O)O

test system: SH-SY5Y cells; experiment: Axonal growth of RA-differentiated SH-SY5Y cells on proteoglycan (ACAN) coating; type: cell-based, human; conditions: PW polypeptide 2.5 µM, 72 h, proteoglycan (ACAN)-coated plate, FIG. 1
Protocol: Therefore, RA-induced differentiated SH-SY5Y can be used to simulate neuronal axonal growth in vitro and to test the effects of PW polypeptides on axonal growth.
Preparation of culture medium for SH-SY5Y: 1) DMEM/F12 + 10% FBS + 1 × penicillin-streptomycin + 1 mM sodium pyruvate; 2) DMEM/F12 + 1% FBS + 1 × penicillin-streptomycin + 1 mM sodium pyruvate. Preparation of 50 mM retinoic acid stock solution: 15.02 mg of retinoic acid was weighed and dissolved in 1 mL of dimethyl sulfoxide (DMSO), aliquoted, and frozen at -80°C. Proteoglycan (ACAN/CSPG1) is a type of chondroitin sulfate proteoglycan (CSPG). Preparation of 1 mg/mL proteoglycan stock solution: 1 mg of ACAN solid was dissolved in 1 mL of distilled water, aliquoted, and frozen at -80°C. Preparation of PW polypeptide solution for cells (1 mM): the corresponding mass of polypeptide powder was weighed, dissolved in PBS and filtered through a 0.2 µm filter membrane, aliquoted, and frozen at -20°C.
The 1 mg/mL proteoglycan was diluted to 250 µg/mL with distilled water to coat a 24-well cell culture plate: each well was coated with 3 droplets of ACAN, 2 µL per droplet. Using the culture medium containing 10% FBS, SH-SY5Y cells were seeded in the proteoglycan-coated 24-well plate (20,000 cells/well) and incubated (37°C, 5% CO2) for 20 h. The medium was replaced with a culture medium containing 1% FBS, and PW polypeptide (2.5 µM) or an equal volume of PBS solution was added. After incubation for 72 h, the cells were fixed with 4% paraformaldehyde (room temperature, 30 min), and cell morphology was photographed and recorded using a 10× optical microscope. 20-30 cells were randomly selected under each field of view, and axonal length was measured using Image J-SNT.
Data analysis: All measured axonal lengths within each proteoglycan-coated range were averaged to serve as one data point. One-way analysis of variance and Tukey's test were used to compare the differences between groups. P<0.05 was considered as a significant difference.

| Compound | promoting effect on axonal growth compared with PW6 | effect of promoting axonal growth compared with the scrambled polypeptide (Scr, negative control) |
| --- | --- | --- |
| PW-95: polypeptide derivative, SEQ ID NO: 12 (GRKKRRQRRRCDMAEHTERLKAKDSLKLSQEYESI; not fully specified; MOD_RES 35: note = I at position 35 is amidated; LIPID 23: note = Lys side-chain linked to 2-(2-(2-amino ethoxy) ethoxy) acetic acid-2-(2-(2-amino ethoxy) ethoxy)acetic acid-gamma Glutamic acid-Octadecanedioic acid; SITE 6: note = D-arginine; SITE 2: note = D-arginine; SITE 8: n) | not significantly enhanced | – |
| PW-92: polypeptide derivative, SEQ ID NO: 10 (G[dR]KKR[dR]QRRRCDMAEHTERLK([AEEA-AEEA-γGlu-C18 diacid])ANDSLKLSQEYESI-NH2; not fully specified (residue 8)) | no significant difference | significant effect of promoting axonal growth |
| PW-252: polypeptide derivative, SEQ ID NO: 47 (G[dR]KKR[dR]Q[dR]RRCDMAEHTERLK([AEEA-AEEA-γGlu-Palmitoyl])ANDSLKLSQEYESI-NH2; N-terminus assumed; SMILES CCCCCCCCCCCCCCCC(=O)N[C@@H](CCC(=O)NCCOCCOCC(=O)NCCOCCOCC(=O)NCCCC[C@H](NC(=O)[C@H](CC(C)C)NC(=O)[C@H](CCCNC(=N)N)NC(=O)[C@H](CCC(=O)O)NC(=O)[C@@H](NC(=O)[C@H](Cc1c[nH]cn1)NC(=O)[C@H](CCC(=O)O)NC(=O)[C@H](C)NC(=O)[C@H](CCSC)NC(=O)[C@H](CC(=O)O)NC(=O)[C@H](CS)NC(=O)[C@H](CCCNC(=N)N)NC(=O)[C@H](CCCNC(=N)N)NC(=O)[C@@H](CCCNC(=N)N)NC(=O)[C@H](CCC(N)=O)NC(=O)[C@@H](CCCNC(=N)N)NC(=O)[C@H](CCCNC(=N)N)NC(=O)[C@H](CCCCN)NC(=O)[C@H](CCCCN)NC(=O)[C@@H](CCCNC(=N)N)NC(=O)CN)[C@@H](C)O)C(=O)N[C@@H](C)C(=O)N[C@@H](CC(N)=O)C(=O)N[C@@H](CC(=O)O)C(=O)N[C@@H](CO)C(=O)N[C@@H](CC(C)C)C(=O)N[C@@H](CCCCN)C(=O)N[C@@H](CC(C)C)C(=O)N[C@@H](CO)C(=O)N[C@@H](CCC(N)=O)C(=O)N[C@@H](CCC(=O)O)C(=O)N[C@@H](Cc1ccc(O)cc1)C(=O)N[C@@H](CCC(=O)O)C(=O)N[C@@H](CO)C(=O)N[C@H](C(N)=O)[C@@H](C)CC)C(=O)O) | no significant difference | significant effect of promoting axonal growth |
| NH2-GrKKRrQrRR-C-DMAEHTEALKANDSLcyclo(KLSQEYE)SI-NH2 [PW-239] | not significantly enhanced | significant effect of promoting axonal growth |
| PW-253: polypeptide derivative, SEQ ID NO: 48 (G[dR]KKR[dR]Q[dR]RRDMAEHTERLK([AEEA-AEEA-γGlu-Palmitoyl])ANDSLKLSQEYESI-NH2; N-terminus assumed; SMILES CCCCCCCCCCCCCCCC(=O)N[C@@H](CCC(=O)NCCOCCOCC(=O)NCCOCCOCC(=O)NCCCC[C@H](NC(=O)[C@H](CC(C)C)NC(=O)[C@H](CCCNC(=N)N)NC(=O)[C@H](CCC(=O)O)NC(=O)[C@@H](NC(=O)[C@H](Cc1c[nH]cn1)NC(=O)[C@H](CCC(=O)O)NC(=O)[C@H](C)NC(=O)[C@H](CCSC)NC(=O)[C@H](CC(=O)O)NC(=O)[C@H](CCCNC(=N)N)NC(=O)[C@H](CCCNC(=N)N)NC(=O)[C@@H](CCCNC(=N)N)NC(=O)[C@H](CCC(N)=O)NC(=O)[C@@H](CCCNC(=N)N)NC(=O)[C@H](CCCNC(=N)N)NC(=O)[C@H](CCCCN)NC(=O)[C@H](CCCCN)NC(=O)[C@@H](CCCNC(=N)N)NC(=O)CN)[C@@H](C)O)C(=O)N[C@@H](C)C(=O)N[C@@H](CC(N)=O)C(=O)N[C@@H](CC(=O)O)C(=O)N[C@@H](CO)C(=O)N[C@@H](CC(C)C)C(=O)N[C@@H](CCCCN)C(=O)N[C@@H](CC(C)C)C(=O)N[C@@H](CO)C(=O)N[C@@H](CCC(N)=O)C(=O)N[C@@H](CCC(=O)O)C(=O)N[C@@H](Cc1ccc(O)cc1)C(=O)N[C@@H](CCC(=O)O)C(=O)N[C@@H](CO)C(=O)N[C@H](C(N)=O)[C@@H](C)CC)C(=O)O) | no significant difference | significant effect of promoting axonal growth |
| CC[C@H](C)[C@H](NC(=O)[C@H](CO)NC(=O)[C@H](CCC(=O)O)NC(=O)[C@H](Cc1ccc(O)cc1)NC(=O)[C@@H]1CCC(=O)NCCCC[C@H](NC(=O)[C@H](CC(C)C)NC(=O)[C@H](CO)NC(=O)[C@H](CC(=O)O)NC(=O)[C@H](CC(N)=O)NC(=O)[C@H](C)NC(=O)[C@H](CCCCN)NC(=O)[C@H](CC(C)C)NC(=O)[C@H](CCCNC(=N)N)NC(=O)[C@H](CCC(=O)O)NC(=O)[C@@H](NC(=O)[C@H](Cc2c[nH]cn2)NC(=O)[C@H](CCC(=O)O)NC(=O)[C@H](C)NC(=O)[C@H](CCSC)NC(=O)[C@H](CC(=O)O)NC(=O)[C@H](CS)NC(=O)[C@H](CCCNC(=N)N)NC(=O)[C@H](CCCNC(=N)N)NC(=O)[C@H](CCCNC(=N)N)NC(=O)[C@H](CCC(N)=O)NC(=O)[C@H](CCCNC(=N)N)NC(=O)[C@H](CCCNC(=N)N)NC(=O)[C@H](CCCCN)NC(=O)[C@H](CCCCN)NC(=O)[C@H](CCCNC(=N)N)NC(=O)CN)[C@@H](C)O)C(=O)N[C@@H](CC(C)C)C(=O)N[C@@H](CO)C(=O)N[C@@H](CCC(N)=O)C(=O)N1)C(N)=O [PW-170] (H-GRKKRRQRRRCDMAEHTERLKANDSLKLSQEYESI-NH2; lactam 27-31) | no significant difference | significant effect of promoting axonal growth |
| PW-96: polypeptide derivative, SEQ ID NO: 13 (GRKKRRQRRRDMAEHTERLKAKDSLKLSQEYESI; not fully specified; MOD_RES 34: note = I at position 34 is amidated; LIPID 22: note = Lys side-chain linked to 2-(2-(2-amino ethoxy) ethoxy) acetic acid-2-(2-(2-amino ethoxy) ethoxy)acetic acid-gamma Glutamic acid-Octadecanedioic acid; SITE 6: note = D-arginine; SITE 2: note = D-arginine; SITE 8: n) | not significantly enhanced | – |
| PW-261: polypeptide derivative, SEQ ID NO: 51 (G[dR]KKR[dR]Q[dR]RRDMAEHTERLK([AEEA-γGlu-Lauroyl])ANDSLKLSQEYESI-NH2; N-terminus assumed; SMILES CCCCCCCCCCCC(=O)N[C@@H](CCC(=O)NCCOCCOCC(=O)NCCCC[C@H](NC(=O)[C@H](CC(C)C)NC(=O)[C@H](CCCNC(=N)N)NC(=O)[C@H](CCC(=O)O)NC(=O)[C@@H](NC(=O)[C@H](Cc1c[nH]cn1)NC(=O)[C@H](CCC(=O)O)NC(=O)[C@H](C)NC(=O)[C@H](CCSC)NC(=O)[C@H](CC(=O)O)NC(=O)[C@H](CCCNC(=N)N)NC(=O)[C@H](CCCNC(=N)N)NC(=O)[C@@H](CCCNC(=N)N)NC(=O)[C@H](CCC(N)=O)NC(=O)[C@@H](CCCNC(=N)N)NC(=O)[C@H](CCCNC(=N)N)NC(=O)[C@H](CCCCN)NC(=O)[C@H](CCCCN)NC(=O)[C@@H](CCCNC(=N)N)NC(=O)CN)[C@@H](C)O)C(=O)N[C@@H](C)C(=O)N[C@@H](CC(N)=O)C(=O)N[C@@H](CC(=O)O)C(=O)N[C@@H](CO)C(=O)N[C@@H](CC(C)C)C(=O)N[C@@H](CCCCN)C(=O)N[C@@H](CC(C)C)C(=O)N[C@@H](CO)C(=O)N[C@@H](CCC(N)=O)C(=O)N[C@@H](CCC(=O)O)C(=O)N[C@@H](Cc1ccc(O)cc1)C(=O)N[C@@H](CCC(=O)O)C(=O)N[C@@H](CO)C(=O)N[C@H](C(N)=O)[C@@H](C)CC)C(=O)O) | no significant difference | significant effect of promoting axonal growth |
